# From patent US20060046999A1, “Monocyclic aroylpyridinones as antiinflammatory agents” (priority 2002, published 2006)
# pIC50: −log10 of the molar value.
# Target: p38 map kinase (Homo sapiens, UniProt Q16539)
# Experiment: p38 map kinase SPA [33P] assay
# Type: biochemical
# Settings: 10 μM ATP, 2.5 μM biotinylated MBP substrate, 90 min at 30° C.
# Excerpt: The assay makes use of the serine/threonine protein kinase SPA [^33P]-assay kit from Amersham Pharmacia Biotech. The assay is a homogeneous technique using SPA technology for the quantification of serine threonine kinase activity.
# It is based on the p38 map kinase catalysed transfer of the γ-phosphate group of the [γ-^33P]-ATP to the substrate, biotinylated myelin basic protein (MBP). The resulting [^33P]-labelled biotinylated product is trapped on a PVT SPA bead containing scintillant which has been surface coated with streptavidin.
# The beads are allowed to settle to eliminate high background, and therefore only ^33P_labelled product attached to the SPA bead is detected.
# The assay is carried out in the presence and absence of test compounds to determine their effect on p38 map kinase activity.
# A Test Protocol is as Follows:
# • 1. SPA assay kit (Amersham). Components: • Assay buffer (store frozen) • Stop solution (store frozen) • Streptavidin coated SPA beads—reconstitute with 5 ml of PBS (50 mg/ml) (store in fridge) • 2. p38 map kinase enzyme (500 μg/ml)—aliquoted in 1.5 ml • dilute 1:10 to 50 μg/ml • 1 plate: 110 μl (stock 500 μg/ml)+990 μl PBS. • 3. Assay reagent: • for 1 plate: 504 μl assay buffer [500 mM MOPS pH 7.2, 10 μM ATP, 50 mM MgCl2, 25 μM biotinylated myelin basic protein (MBP)] • 2513.4 μl water • 1.1 μl [^33P]-ATP (10 μCi/μl) (on activity date/adjust for activity date) • 4.534 μl X10-2M ATP in water • 4. Stop solution: • for 1 plate: 265.92 μl streptavidin coated beads (50 mg/ml) • 1651.68 μl stop buffer (500 μM ATP, 50 mM EDTA, 1% Triton X-100) • 7084.32 μl PBS. • 1. Add 10 μl compound dilutions (5× final conc.) to test wells • 2. Add 10 μl 12.5% DMSO to control/blank wells • 3. Add 10 μl enzyme (50 μg/ml)—final conc. 500 ng/well • 4. Add 10 μl PBS to blank wells • 5. Add 30 μl of assay reagent to each well (final conc. 10 μM ATP, 2.5 μM substrate) • 6. Mix well on plate shaker • 7. Incubate 90 min (30° C.) • 8. Add 75 μl of stop solution to each well (final conc. 55 μM ATP) • 9. Spin plate: 3 min/1600 rpm/20° C. (alternatively leave to settle overnight) • 10. Read in Microbeta, Protocol SPA paralux 3.
# p38 map kinase, sequence (Q16539 whole entry): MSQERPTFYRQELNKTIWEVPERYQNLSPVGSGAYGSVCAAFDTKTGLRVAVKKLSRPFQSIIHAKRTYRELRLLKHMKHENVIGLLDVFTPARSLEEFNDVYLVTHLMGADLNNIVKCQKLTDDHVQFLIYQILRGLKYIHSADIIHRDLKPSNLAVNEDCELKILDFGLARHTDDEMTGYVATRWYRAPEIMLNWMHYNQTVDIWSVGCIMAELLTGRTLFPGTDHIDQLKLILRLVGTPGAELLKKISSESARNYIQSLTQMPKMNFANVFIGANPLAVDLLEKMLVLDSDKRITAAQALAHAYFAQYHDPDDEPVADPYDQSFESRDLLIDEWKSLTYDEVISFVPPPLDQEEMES
row,SMILES,pIC50
1,"O=C(c1ccccc1)c1ccc(=O)n(Cc2ccccc2)c1NCc1ccccc1 [Example 2, 5-Benzoyl-1-benzyl-6-(benzylamino)-2(1H)-pyridinone]",6.49
2,"O=C(c1ccccc1)c1ccc(=O)[nH]c1NC1CCCCC1 [Example 5, 5-Benzoyl-6-(cyclohexylamino)-2(1H)-pyridinone]",5.89
3,"CC(C)C(Nc1c(C(=O)c2ccccc2)ccc(=O)n1C)C(C)C [Example 14, 5-Benzoyl-6-[(1-isopropyl-2-methylpropyl)amino]-1-methyl-2(1H)-pyridinone]",5.73
4,"O=C(c1ccccc1)c1ccc(=O)[nH]c1NCC1CCCCC1 [Example 15, 5-Benzoyl-6-[(cyclohexylmethyl)amino]-2(1H)-pyridinone]",5.39

# The next compounds have a higher pIC50 than those just listed; values first:
row,pIC50,SMILES
1,6.52,"COc1ccc(-n2c(N)c(C(=O)c3ccccc3)ccc2=O)cc1 [Example 4, 6-Amino-5-benzoyl-1-(4-methoxyphenyl)-2(1H)-pyridinone]"
2,6.68,"Cc1ccc(-n2c(N)c(C(=O)c3ccccc3)ccc2=O)cc1 [Example 9, 6-amino-5-benzoyl-1-(4-methylphenyl)-2(1H)-pyridinone]"
3,6.69,"Nc1c(C(=O)c2ccccc2)ccc(=O)n1-c1ccccc1 [Example 6, 6-Amino-5-benzoyl-1-phenyl-2(1H)-pyridinone]"
4,6.90,"COc1ccc(-n2c(N)c(C(=O)c3ccc(F)cc3)ccc2=O)c(OC)c1 [Example 20, 6-Amino-1-(2,4-dimethoxyphenyl)-5-(4-fluorobenzoyl)-2(1H)-pyridinone]"
